Measured values taken from ChEMBL document CHEMBL4420076, “Amylin and calcitonin receptor agonist” (2017).
pEC50, pIC50: −log10 of the molar value. Numbered stars: 1 amine (or outer) side, 2 acyl side, 3 side chain; on linkers, the order of the positions; unused ones are H or OH. Peptide text beside a SMILES is read from it. * marks the point of attachment. C20 diacid = O=C(O)CCCCCCCCCCCCCCCCCCC(=O)*; γGlu = O=C(O)[C@H](CCC(=O)[*:2])N[*:1]

Columns and labels:
Rattus norvegicus [1] = experiment: Reduction in food intake in Sprague-Dawley rat at 3 nmol/kg measured 0 to 24 hrs post dose relative to control; format: functional; set-up: scale not given: the % may be the effect or the level left
Rattus norvegicus [2] = experiment: Reduction in food intake in Sprague-Dawley rat at 3 nmol/kg measured 24 to 48 hrs post dose relative to control; format: functional; set-up: scale not given: the % may be the effect or the level left
[3] = target: T1, Amylin receptor AMY3; CALCR/RAMP3 (Homo sapiens, UniProt O60896+P30988); experiment: Agonist activity at human amylin receptor expressed in BHK570 cells co-expressing RAMP3 assessed as increase in intracellular cAMP concentration incubated for 3 hrs in absence of albumin by CRE luciferase reporter gene assay; format: functional, cell-based
T1 sequence (P30988 whole entry): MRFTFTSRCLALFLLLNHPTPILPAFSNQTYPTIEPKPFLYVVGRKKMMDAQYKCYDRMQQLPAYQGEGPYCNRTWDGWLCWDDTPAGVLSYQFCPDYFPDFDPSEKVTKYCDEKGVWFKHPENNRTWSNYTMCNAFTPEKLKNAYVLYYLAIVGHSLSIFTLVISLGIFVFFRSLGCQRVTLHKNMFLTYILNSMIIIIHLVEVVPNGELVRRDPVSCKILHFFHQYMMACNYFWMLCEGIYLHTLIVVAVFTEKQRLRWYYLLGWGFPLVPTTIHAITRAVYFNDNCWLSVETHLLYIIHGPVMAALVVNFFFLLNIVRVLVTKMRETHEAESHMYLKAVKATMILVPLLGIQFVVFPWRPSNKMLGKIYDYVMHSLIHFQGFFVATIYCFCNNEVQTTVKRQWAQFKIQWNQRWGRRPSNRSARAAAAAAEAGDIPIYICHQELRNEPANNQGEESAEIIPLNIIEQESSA
T1 sequence (O60896 whole entry): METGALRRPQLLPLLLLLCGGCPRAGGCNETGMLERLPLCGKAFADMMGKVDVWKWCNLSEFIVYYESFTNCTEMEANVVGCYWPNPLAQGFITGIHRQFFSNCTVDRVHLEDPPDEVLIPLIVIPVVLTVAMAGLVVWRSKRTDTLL

Calcitonin receptor [4] = target: T2, Calcitonin receptor (Homo sapiens, UniProt P30988); experiment: Agonist activity at human calcitonin receptor expressed in BHK570 cells assessed as increase in intracellular cAMP concentration incubated for 3 hrs in absence of albumin by CRE luciferase reporter gene assay; format: functional, cell-based
T2 sequence (P30988 whole entry): T1 sequence (P30988 whole entry)

[5] = target: T1, Amylin receptor AMY3; CALCR/RAMP3; experiment: Agonist activity at human amylin receptor expressed in BHK570 cells co-expressing RAMP3 assessed as increase in intracellular cAMP concentration incubated for 3 hrs in presence of 10% FBS by CRE luciferase reporter gene assay; format: functional, cell-based
Calcitonin receptor [6] = target: T2, Calcitonin receptor; experiment: Agonist activity at human calcitonin receptor expressed in BHK570 cells assessed as increase in intracellular cAMP concentration incubated for 3 hrs in presence of 10% FBS by CRE luciferase reporter gene assay; format: functional, cell-based
[7] = Solubility in 100 mM glycylglycine buffer at pH 3.0 incubated for 18 hrs by UPLC analysis; format: physicochemical
[8] = Solubility in 100 mM glycylglycine buffer at pH 4.0 incubated for 18 hrs by UPLC analysis; format: physicochemical
[9] = Solubility in 100 mM bistrispropane buffer at pH 6.0 incubated for 18 hrs by UPLC analysis; format: physicochemical
[10] = Solubility in 100 mM glycylglycine buffer at pH 5.0 incubated for 18 hrs by UPLC analysis; format: physicochemical
[11] = Solubility in 100 mM bistrispropane buffer at pH 6.5 incubated for 18 hrs by UPLC analysis; format: physicochemical
[12] = Solubility in 100 mM bistrispropane buffer at pH 7.0 incubated for 18 hrs by UPLC analysis; format: physicochemical
[13] = Solubility in 100 mM bistrispropane buffer at pH 7.5 incubated for 18 hrs by UPLC analysis; format: physicochemical
[14] = Solubility in 100 mM bistrispropane buffer at pH 8.0 incubated for 18 hrs by UPLC analysis; format: physicochemical
[15] = target: T1, Amylin receptor AMY3; CALCR/RAMP3; experiment: Displacement of [125I]-labeled rat amylin from human amylin receptor expressed in BHK tkts13 whole cells co-expressing RAMP3 incubated for 60 mins by scintillation proximity assay; format: cell-based
Calcitonin receptor [16] = target: T2, Calcitonin receptor; experiment: Displacement of [125I]-labeled human calcitonin from human calcitonin receptor expressed in BHK tkts13 whole cells incubated for 60 mins by scintillation proximity assay; format: cell-based
[17] = Stability in pH 7.5 buffer assessed as lag time for fibril formation at 1 uM by Thioflavin T based fluorescence assay; format: physicochemical; conditions: pH 7.5, 1 µM
[18] = Stability in pH 7.5 buffer assessed as compound recovery at 1 uM by Thioflavin T based fluorescence assay; format: physicochemical; conditions: read-out: Drug recovery
Calcitonin receptor [19] = target: T2, Calcitonin receptor; experiment: Displacement of [125I]-labeled human calcitonin from human calcitonin receptor expressed in BHK tkts13 cell membranes incubated for 1 hr by scintillation proximity assay
[20] = target: T3, Amylin receptor AMY3; CALCR/RAMP3 (Rattus norvegicus, UniProt P32214+Q9JJ73); experiment: Displacement of [125I]-labeled rat amylin from rat amylin receptor expressed in BHK tkts13 cell membranes co-expressing RAMP3 incubated for 120 mins by scintillation proximity assay
T3 sequence (P32214 whole entry): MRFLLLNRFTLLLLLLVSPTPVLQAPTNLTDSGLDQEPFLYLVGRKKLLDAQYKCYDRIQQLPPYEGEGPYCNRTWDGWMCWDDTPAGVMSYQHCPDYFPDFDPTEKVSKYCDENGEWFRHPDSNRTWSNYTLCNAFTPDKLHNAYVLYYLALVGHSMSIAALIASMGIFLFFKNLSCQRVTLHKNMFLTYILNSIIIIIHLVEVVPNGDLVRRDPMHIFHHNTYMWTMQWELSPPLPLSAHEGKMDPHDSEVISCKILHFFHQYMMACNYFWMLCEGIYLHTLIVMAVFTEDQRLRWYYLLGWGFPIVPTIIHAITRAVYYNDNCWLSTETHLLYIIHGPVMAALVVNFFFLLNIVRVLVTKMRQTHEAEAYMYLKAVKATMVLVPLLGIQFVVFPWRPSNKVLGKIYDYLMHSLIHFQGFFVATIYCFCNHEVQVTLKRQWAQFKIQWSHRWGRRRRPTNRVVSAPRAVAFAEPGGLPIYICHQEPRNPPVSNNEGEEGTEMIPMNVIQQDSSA
T3 sequence (Q9JJ73 whole entry): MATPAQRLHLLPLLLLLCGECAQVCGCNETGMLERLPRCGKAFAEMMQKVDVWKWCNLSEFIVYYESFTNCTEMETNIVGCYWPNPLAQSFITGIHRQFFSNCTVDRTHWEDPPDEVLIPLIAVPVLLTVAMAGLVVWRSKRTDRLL

For `CC(C)C[C@H](NC(=O)[C@H](C)NC(=O)[C@H](C)NC(=O)[C@@H](NC(=O)[C@H](CO)NC(=O)[C@H](CC(C)C)NC(=O)[C@H](CCC(=O)O)NC(=O)[C@H](CO)NC(=O)[C@H](C)NC(=O)CC[C@H](NC(=O)CCCCCCCCCCCCCCCCCCC(=O)O)C(=O)O)[C@@H](C)O)C(=O)NCC(=O)N[C@@H](CCCNC(=N)N)C(=O)N[C@@H](CC(C)C)C(=O)N[C@@H](CO)C(=O)N[C@@H](C)C(=O)N[C@@H](CCC(=O)O)C(=O)N[C@@H](CC(C)C)C(=O)N[C@@H](Cc1cnc[nH]1)C(=O)N[C@@H](CCC(=O)O)C(=O)N[C@@H](CC(C)C)C(=O)N[C@@H](C)C(=O)N[C@H](C(=O)N[C@@H](CC(C)C)C(=O)N1CCC[C@H]1C(=O)N[C@@H](Cc1cnc[nH]1)C(=O)N[C@H](C(=O)N[C@@H](CCC(=O)O)C(=O)N[C@H](C(=O)NCC(=O)N[C@@H](CO)C(=O)NCC(=O)N[C@@H](CO)C(=O)N1CCC[C@H]1C(N)=O)[C@@H](C)O)[C@@H](C)O)[C@@H](C)O` ({C20 diacid-γGlu}-ASELSTAALGRLSAELHELATLPHTETGSGSP-NH2), which Activity (Rattus norvegicus [1]) is on record?
Its Activity is 55%.

And the Activity (Rattus norvegicus [2])?
Its Activity is 62%.

What about the pEC50 [3] of the same compound?
Its pEC50 is 10.57.

What about the pEC50 (Calcitonin receptor [4]) of the same compound?
The pEC50 was 10.74.

And the pEC50 [5]?
Its pEC50 is 9.73.

What about the pEC50 (Calcitonin receptor [6]) of the same compound?
Its pEC50 is 10.66.

What about the solubility at 18 h [7] of the same compound?
Its solubility at 18 h is at least 200 µM.

And the solubility at 18 h [8]?
Its solubility at 18 h is at least 200 µM.

And the solubility at 18 h [9]?
Its solubility at 18 h is at least 200 µM.

What about the solubility at 18 h [10] of the same compound?
The solubility at 18 h was at least 200 µM.

What about the solubility at 18 h [11] of the same compound?
The solubility at 18 h was at least 200 µM.

And the solubility at 18 h [12]?
Its solubility at 18 h is at least 200 µM.

What about the solubility at 18 h [13] of the same compound?
The solubility at 18 h was at least 200 µM.

What about the solubility at 18 h [14] of the same compound?
The solubility at 18 h was at least 200 µM.

What about the pIC50 [15] of the same compound?
Its pIC50 is 9.22.

What about the pIC50 (Calcitonin receptor [16]) of the same compound?
Its pIC50 is 9.35.

Which results are given for `CC(C)C[C@H](NC(=O)[C@H](C)NC(=O)[C@H](C)NC(=O)[C@@H](NC(=O)[C@H](CO)NC(=O)[C@H](CC(C)C)NC(=O)[C@H](CCC(=O)O)NC(=O)[C@H](CO)NC(=O)[C@H](C)NC(=O)CC[C@H](NC(=O)CCCCCCCCCCCCCCCCCCC(=O)O)C(=O)O)[C@@H](C)O)C(=O)NCC(=O)N[C@@H](CCCNC(=N)N)C(=O)N[C@@H](CC(C)C)C(=O)N[C@@H](CO)C(=O)N[C@@H](C)C(=O)N[C@@H](CCC(=O)O)C(=O)N[C@@H](CC(C)C)C(=O)N[C@@H](Cc1cnc[nH]1)C(=O)N[C@@H](CCC(=O)O)C(=O)N[C@@H](CC(C)C)C(=O)N[C@@H](C)C(=O)N[C@H](C(=O)N[C@@H](Cc1ccc(O)cc1)C(=O)N1CCC[C@H]1C(=O)N[C@@H](CCCNC(=N)N)C(=O)N[C@H](C(=O)N[C@@H](CCC(=O)O)C(=O)N[C@H](C(=O)NCC(=O)N[C@@H](CO)C(=O)NCC(=O)N[C@@H](CO)C(=O)N1CCC[C@H]1C(N)=O)[C@@H](C)O)[C@@H](C)O)[C@@H](C)O` ({C20 diacid-γGlu}-ASELSTAALGRLSAELHELATYPRTETGSGSP-NH2)?
Activity (Rattus norvegicus [1]): 45%; Activity (Rattus norvegicus [2]): 67%; pEC50 (Calcitonin receptor [4]): 10.64; pEC50 [5]: 10.17; Time [17]: > 45 h; remaining at 1 µM [18]: 100%; solubility at 18 h [7]: ≥ 200 µM; solubility at 18 h [8]: ≥ 200 µM; solubility at 18 h [9]: ≥ 200 µM; solubility at 18 h [10]: ≥ 200 µM; solubility at 18 h [11]: ≥ 200 µM; solubility at 18 h [12]: ≥ 200 µM; solubility at 18 h [13]: ≥ 200 µM; solubility at 18 h [14]: ≥ 200 µM; pIC50 (Calcitonin receptor [19]): 10.15; pIC50 [20]: 8.40; pIC50 [15]: 8.58; pIC50 (Calcitonin receptor [16]): 8.53
